Measurements: patent US5712282A, “Method for therapeutically treating tardive dyskinesia and uses thereof” (Iyo; Masaomi, priority 1994, dated 1998)

What was measured:
cAMP in the brain = conditions: rats; animal tests, J. Med. Chem. 34(1), 291-293 (1991); cited from earlier work
acute toxicity in rats = conditions: rat, in vivo
SD-strain rats [1] = assay: Test Example 2: oral dyskinesia induced by haloperidol decanoate (25 mg/kg i.m. every 4 weeks, 24 weeks) in rats; assay type: in vivo, SD-strain rats (male); conditions: for Number of the tongue protrusions / Number of the chewings: 15 min observation from 15 min after dosing, Mean±SE; for Number of the tongue protrusions: control 17.2 ± 5.5; for Number of the chewings: control 213.3 ± 50.5; for suppression of oral dyskinesia: haloperidol decanoate-induced, rats, i.p.
Method: Haloperidol decanoate was intramuscularly injected in the femoral region of each rat of SD-strain rats (male, 6 rats per group) at a dose of 25 mg/kg once for every 4 weeks during the total period of 24 weeks.
To the control group of rats was intraperitoneally administered only the physiological saline containing 10% Cremophor.
The numbers of the vacuous chewing movements and the abnormal tongue-protruding movements appearing during the 15 min. period of the observation were counted as indices of oral dyskinesia in the rats.
Values of Mean±Standard error of the numbers of the abnormal movements as observed were calculated, and the results obtained are shown in Table 3 below.

SD-strain rats [2] = assay: Test Example 1: tardive dyskinesia induced by haloperidol (1.5 mg/kg i.p. daily, 3 weeks) in rats; assay type: in vivo, SD-strain rats (male); conditions: for Number of the tongue protrusions / Number of the chewings: 15 min observation from 3 min after dosing, Mean±SE; for Number of the tongue protrusions: control 7.7 ± 2.1; for Number of the chewings: control 111.2 ± 27.8
Method: After lapse of 96 hours from the completion of the last administration of haloperidol, the number of the vacuous chewing movements of the mouth and the number of abnormal tongue-protruding movements of the rats were counted as the parameters indicative of tardive dyskinesia.

phosphodiesterase IV = conditions: Type of PDE inhibited: IV; in vitro; cited from earlier work
SD-strain rats [3] = assay: Test Example 3: oral dyskinesia induced by haloperidol (1.5 mg/kg i.p. daily, 5 weeks) in rats; assay type: in vivo, SD-strain rats (female)
Method: Haloperidol in the form of a suspension of haloperidol in 0.5% aqueous carboxymethylcellulose was intraperitoneally administrated at a dose of 1.5 mg/kg to each rat of SD-strain rats (female, 7 to 8 rats per group) once a day for consecutive five weeks.
Ro 20-1724 was formulated into the form of a suspension in which said compound was partially dissolved and partially dispersed in a physiological saline containing 10% Cremophor. On the next day of the final administration of haloperidol, Ro 20-1724 as the suspension was intraperitoneally administered at a dose of 3 mg/kg, […] or 30 mg/kg in the rats under test. To the control group of rats was administered only the physiological saline containing 10% Cremophor.
The numbers of the vacuous chewing movements and the abnormal tongue-protruding movements appearing during the 15 min. period of the observation were counted as the indices of oral dyskinesia in the rats. The net observation time was calculated by substracting from the total observation time of 15 minutes the amount of time which the rat spent in exploration or grooming. The indices of the oral dyskinesia were expressed as the number of occurrence of the abnormal movements observed in one minute of the net observation time.

phosphodiesterase I ~ V = conditions: Type of PDE inhibited: I ~ V; in vitro; cited from earlier work
phosphodiesterase I = conditions: Type of PDE inhibited: I; in vitro; cited from earlier work
patients = conditions: long-term administration; cited from earlier work

## COc1ccc(C2CNC(=O)C2)cc1OC1CCCC1 (racemic) [Rolipram, (±)-4-[3-(cyclopentyloxy)-4-methoxyphenyl]-2-pyrrolidinone]
cAMP in the brain
  concentration of cAMP in the brain: can increase the concentration of cAMP in the brain of rats
Acute toxicity in rats; ip, intraperitoneal
  LD50: ~500 mg/kg
Acute toxicity in rats; oral
  LD50: ~1200 mg/kg
SD-strain rats [1]; 0.1 mg/kg i.p.
  Number of the tongue protrusions: 6.0 ± 2.2
  Number of the chewings: 138.0 ± 38.1
SD-strain rats [1]; 0.5 mg/kg i.p.
  Number of the tongue protrusions: 1.7 ± 1.1
  Number of the chewings: 33.8 ± 13.8
SD-strain rats [1]; 1.0 mg/kg i.p.
  Number of the tongue protrusions: 1.3 ± 1.1
  Number of the chewings: 42.0 ± 9.5
SD-strain rats [1]
  suppression of oral dyskinesia: suppress in a dose-dependent manner the oral dyskinesia
SD-strain rats [2]; 0.5 mg/kg i.p.
  Number of the tongue protrusions: 2.7 ± 1.7
  Number of the chewings: 32.2 ± 14.5
SD-strain rats [2]; 1.0 mg/kg i.p.
  Number of the tongue protrusions: 1.5 ± 1.5
  Number of the chewings: 8.8 ± 4.0
SD-strain rats [2]; haloperidol-induced rat model, i.p. 0.5 and 1.0 mg/kg
  therapeutic effect on symptoms of tardive dyskinesia: suppresses in a dose-dependent manner the symptoms of tardive dyskinesia

## CCCCn1c(=O)c2c(ncn2CC(C)=O)n(CCCC)c1=O [Denbufylline, 7-(2-oxopropyl)-1,3-di-n-butylxanthine]
Phosphodiesterase IV
  IC50: 0.3 µM

## CC(C)Cn1c(=O)n(C)c(=O)c2[nH]cnc21 [IBMX, 3-isobutyl-1-methylxanthine]
SD-strain rats [1]; 2.0 mg/kg i.p.
  Number of the tongue protrusions: 4.8 ± 1.8
  Number of the chewings: 135.3 ± 45.0
SD-strain rats [1]
  suppression of oral dyskinesia: had a tendency to suppress the above-mentioned oral dyskinesia

## CCCCOc1cc(CC2CNC(=O)N2)ccc1OC (centres unmarked) [Ro 20-1724]
SD-strain rats [3]; 3 mg/kg i.p., number in one minute of net observation time, Mean±SE, n = 8, control 1.90 ± 0.87
  Number of the tongue protrusions: 0.46 ± 0.17
SD-strain rats [3]; 3 mg/kg i.p., number in one minute of net observation time, Mean±SE, n = 8, control 16.2 ± 2.4
  Number of the chewings: 11.7 ± 2.1
SD-strain rats [3]; haloperidol-induced, rats, i.p. 3, 10, 30 mg/kg
  suppression of oral dyskinesia: suppressed in a dose dependent manner the oral dyskinesia
Phosphodiesterase IV
  IC50: 2 µM

## Cn1c(=O)c2[nH]cnc2n(C)c1=O [Theophylline, 3,7-dihydro-1,3-dimethyl-1H-purine-2,6-dione]
Phosphodiesterase I ~ V
  IC50: ~200 µM

## CCOC(=O)C1=C[C@]2(CC)CCCN3CCc4c(n1c1ccccc41)[C@@H]32 [Vinpocetine, eburnamenine 14-carboxylic acid ethyl ester]
Phosphodiesterase I
  IC50: 20 µM

## O=C(CCCN1CCC(O)(c2ccc(Cl)cc2)CC1)c1ccc(F)cc1 [haloperidol]
patients
  adverse reaction: induction of tardive dyskinesia
